The text below walks through data of patent US7579356B2, “Thia-tetraazaacenaphthylene kinase inhibitors” (Janssen Pharmaceutica NV, priority 2005, dated 2009).

One may read the IC50 as the point on the concentration scale where inhibition reaches its midpoint. By inhibition is commonly meant the drop in the measured response relative to a control, in per cent.

The target of one assay is T1, HER-2 (Homo sapiens, UniProt P04626).
T1 construct: His6 with thrombin site (N); purchased Proqinase (Freiburg, Germany)
The experiment in a line: HER-2 Kinase Assay. It is filed as biochemical. The settings on record: for IC50: value in parentheses; for inhibition at 1 µM: test concentration of 1 μM. A digest of the protocol: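 Read-out was scintillation counting of 33P incorporated into biotinylated polyGluTyr captured on streptavidin plates. Reactions ran 1 h at 30 °C with GST-fused HER-2 residues 679–1255, 1 μM ATP, Mn2+ and Mg2+ at pH 7.5; data given as percent inhibition at 1 μM, with IC50 where determined.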

A further assay concerns N87 cells. The assay is described as follows: In Vivo Models - Inhibition of Tumor Growth, N87. The settings on record: Mus musculus, po, 720 h, 100 mg/kg, oral daily for 30 days, athymic mice; read-out: percent inhibition N87. The procedure:
In Vivo Models—Inhibition of Tumor Growth
The ability of test compounds to inhibit unregulated growth of human tumor cells in vivo was evaluated by implanting human tumor cells into the hindflank of athymic mice, administering a test compound and then quantifying any change in tumor size.
Human epidermoid A431 carcinoma, N87 cells and BT474 cells were implanted subcutaneously into the hindflank of female athymic mice (Charles River) and allowed to grow for 6-10 days. After a measurable tumor was established (as determined by baseline caliper measurement), the animal was administered an oral dose of the test compound daily for a period of 30 days. Tumor size was measured every five days and the degree of inhibition was determined by comparing drug-treated animals to vehicle-treated animals.
Variations of this method are intended to include intraperitoneal injection or intravenous infusion as the route of administration and administration of the test compound either alone or in a combination therapy.
The inhibition of tumor growth values are shown in Table 8 at various test concentrations, as indicated. For compounds with multiple values at one test concentration, each value represents a separate assay result.

The target in another assay is T2, EGFR (Homo sapiens, UniProt P00533).
T2 construct: The intracellular portion of EGFR started at nucleotide 2189 (corresponding to amino acid 667) and ended at the termination codon; made in house; host or cells: Sf9 insect cells (baculovirus)
The experiment in a line: EGFR Kinase Assay. The settings on record: for IC50: GST-EGFR, ATP 5 μM. It is filed as biochemical. A digest of the protocol: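 Potency came from triplicate 16-point half-log titrations starting at 200 uM, with IC50 fitted from % inhibition against log concentration, or % inhibition at 2 μM otherwise. Reaction: Sf9-made GST–EGFR cytoplasmic region (aa 667 onward), biotin-polyGluTyr, 5 μM ATP with 33P tracer, pH 8.0 Tris/Mg/vanadate/DTT, 30 °C for 1 h; captured on streptavidin Flashplates and counted.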

For a further assay, the target named is T3, c-Src kinase (human) (Homo sapiens, UniProt P12931).
T3 construct: purchased Upstate Biotechnology, Lake Placid, N.Y
The assay is described as follows: c-Src Kinase Assay. In kind it is biochemical. The settings on record: test concentration of 2 μM; multiple values are separate assay results. Summed up:
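Inhibition was read as 33P incorporation, counted on P30 filtermats, after a 40 min, 30° C reaction. Human c-Src acted on 100 μM Cdc2 peptide with 5 μM ATP (final), pH 7.0 MOPS/MgCl2. Values are percent inhibition at 2 μM compound, or IC50 where determined.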

The next assay deals with T4, Lyn kinase (human) (Homo sapiens, UniProt P07948).
T4 construct: purchased Upstate Biotechnology, Lake Placid, N.Y
The assay is described as follows: Lyn Kinase Assay. It is filed as biochemical. The settings on record: test concentration of 2 μM. A digest of the protocol:
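Radiometric filter-binding assay with recombinant human Lyn, poly(Glu,Tyr) substrate (0.1 mg/mL final), 5 μM ATP plus γ-33P-ATP in MOPS pH 7.5/Mg acetate buffer; 40 min at 30 °C, stopped with phosphoric acid, counted by scintillation. Reported as percent inhibition at 2 μM, with IC50 (μM) where determined.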

Bounds are passed on as bounds.

T3 sequence (P12931 whole entry): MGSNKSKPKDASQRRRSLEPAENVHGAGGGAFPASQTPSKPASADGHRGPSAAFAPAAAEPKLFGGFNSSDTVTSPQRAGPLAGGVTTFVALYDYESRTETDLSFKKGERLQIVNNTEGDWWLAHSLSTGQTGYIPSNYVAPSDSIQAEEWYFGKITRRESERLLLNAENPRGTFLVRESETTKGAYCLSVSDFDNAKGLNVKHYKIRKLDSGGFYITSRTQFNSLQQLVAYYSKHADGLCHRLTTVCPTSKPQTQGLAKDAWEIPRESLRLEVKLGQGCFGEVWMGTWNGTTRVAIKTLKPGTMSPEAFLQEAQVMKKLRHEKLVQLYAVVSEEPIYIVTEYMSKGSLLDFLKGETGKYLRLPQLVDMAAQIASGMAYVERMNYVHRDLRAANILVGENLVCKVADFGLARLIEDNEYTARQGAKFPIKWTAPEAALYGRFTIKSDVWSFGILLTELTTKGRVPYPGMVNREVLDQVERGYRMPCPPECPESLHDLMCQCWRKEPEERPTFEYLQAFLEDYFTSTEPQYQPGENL
T4 sequence (P07948 whole entry): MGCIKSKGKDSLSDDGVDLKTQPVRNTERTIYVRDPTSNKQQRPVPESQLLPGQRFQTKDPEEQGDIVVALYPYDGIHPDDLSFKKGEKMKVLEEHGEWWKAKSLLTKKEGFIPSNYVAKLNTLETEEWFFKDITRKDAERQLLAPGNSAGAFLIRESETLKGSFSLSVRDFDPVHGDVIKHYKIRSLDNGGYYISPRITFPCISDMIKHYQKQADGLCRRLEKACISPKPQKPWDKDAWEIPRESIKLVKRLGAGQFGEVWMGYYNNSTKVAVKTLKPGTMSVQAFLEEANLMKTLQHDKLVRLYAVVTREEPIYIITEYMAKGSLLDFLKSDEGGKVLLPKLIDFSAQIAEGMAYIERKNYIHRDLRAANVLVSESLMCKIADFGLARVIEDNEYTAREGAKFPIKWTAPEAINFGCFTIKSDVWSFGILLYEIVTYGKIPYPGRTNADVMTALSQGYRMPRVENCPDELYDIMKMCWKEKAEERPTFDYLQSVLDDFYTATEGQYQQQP
T2 sequence (P00533 669-1210 limits assumed): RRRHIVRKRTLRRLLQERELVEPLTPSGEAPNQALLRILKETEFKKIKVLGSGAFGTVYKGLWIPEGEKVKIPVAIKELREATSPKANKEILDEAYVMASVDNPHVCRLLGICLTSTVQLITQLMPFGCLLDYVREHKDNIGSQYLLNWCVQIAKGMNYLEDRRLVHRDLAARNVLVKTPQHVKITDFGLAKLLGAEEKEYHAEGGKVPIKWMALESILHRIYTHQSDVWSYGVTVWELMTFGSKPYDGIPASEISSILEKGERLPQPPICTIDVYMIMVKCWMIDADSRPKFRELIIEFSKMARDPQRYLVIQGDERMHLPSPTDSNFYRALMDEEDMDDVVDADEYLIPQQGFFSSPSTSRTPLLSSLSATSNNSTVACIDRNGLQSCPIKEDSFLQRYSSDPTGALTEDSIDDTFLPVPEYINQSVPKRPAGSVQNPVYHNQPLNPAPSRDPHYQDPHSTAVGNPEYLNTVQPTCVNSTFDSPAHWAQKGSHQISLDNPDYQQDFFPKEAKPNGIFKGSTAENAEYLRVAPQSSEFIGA
T1 sequence (P04626 679-1255): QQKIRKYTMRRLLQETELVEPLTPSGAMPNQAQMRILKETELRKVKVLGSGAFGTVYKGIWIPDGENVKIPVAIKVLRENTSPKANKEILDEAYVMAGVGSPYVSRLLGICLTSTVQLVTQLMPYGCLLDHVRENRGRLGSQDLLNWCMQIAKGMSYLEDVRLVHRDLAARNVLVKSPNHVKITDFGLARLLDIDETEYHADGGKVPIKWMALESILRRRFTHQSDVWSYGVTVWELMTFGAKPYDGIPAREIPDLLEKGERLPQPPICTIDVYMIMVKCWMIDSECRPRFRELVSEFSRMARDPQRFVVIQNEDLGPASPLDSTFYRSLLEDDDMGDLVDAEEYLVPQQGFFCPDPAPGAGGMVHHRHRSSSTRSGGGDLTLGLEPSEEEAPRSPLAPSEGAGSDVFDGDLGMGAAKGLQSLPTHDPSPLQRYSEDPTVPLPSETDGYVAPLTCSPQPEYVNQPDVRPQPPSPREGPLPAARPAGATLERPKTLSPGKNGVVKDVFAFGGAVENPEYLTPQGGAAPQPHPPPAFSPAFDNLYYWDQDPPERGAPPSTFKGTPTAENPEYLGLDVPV

On to `O=C(Nc1ccc(CN2CCC(F)(F)CC2)cc1)c1sc2ncnc3c2c1NC(=O)N3c1ccc(Oc2ccccc2)cc1` [Cpd 263, 4-oxo-5-(4-phenoxy-phenyl)-4,5-dihydro-3H-1-thia-3,5,6,8-tetraaza-acenaphthylene-2-carboxylic acid [4-(4,4-difluoro-piperidin-1-ylmethyl)-phenyl]-amide], for which, at HER-2, the IC50 turned out to be 523 nM. In the assay with N87 cells, the inhibition in vivo at 100 mg/kg stood at 18.1%. For the same molecule, the inhibition at 2 µM on EGFR (test concentration of 2 μM, compounds without an IC50, read-out: EGFR inhibition in percent) came to 83%.

For `O=C(Nc1ccc(CN2CCOCC2)c(O)c1)c1sc2ncnc3c2c1NC(=O)N3c1ccc(Oc2ccccc2)cc1` [Cpd 262, 4-oxo-5-(4-phenoxy-phenyl)-4,5-dihydro-3H-1-thia-3,5,6,8-tetraaza-acenaphthylene-2-carboxylic acid (3-hydroxy-4-morpholin-4-ylmethyl-phenyl)-amide], the IC50 is 19 nM on HER-2 and 35 nM on EGFR. Besides, the inhibition in vivo at 100 mg/kg with N87 cells came out at 70.5%.

As to `CN(C)c1cc(NC(=O)c2sc3ncnc4c3c2NC(=O)N4c2ccc(Oc3ccccc3)cc2)ccc1CN1CCOCC1` [Cpd 257, 4-oxo-5-(4-phenoxy-phenyl)-4,5-dihydro-3H-1-thia-3,5,6,8-tetraaza-acenaphthylene-2-carboxylic acid (3-dimethylamino-4-morpholin-4-ylmethyl-phenyl)-amide], the IC50 on HER-2 turned out to be 24 nM; on EGFR, 96 nM. In addition, the inhibition in vivo at 100 mg/kg in the assay with N87 cells came out at 71.2%.

In the case of `Cc1cc(NC(=O)c2sc3ncnc4c3c2NC(=O)N4c2ccc(Oc3ccccc3)cc2)ccc1CN1CCOCC1` [Cpd 232, 4-oxo-5-(4-phenoxy-phenyl)-4,5-dihydro-3H-1-thia-3,5,6,8-tetraaza-acenaphthylene-2-carboxylic acid (3-methyl-4-morpholin-4-ylmethyl-phenyl)-amide], the IC50 worked out at 28 nM at HER-2 and 41 nM on EGFR. For the same molecule, in the assay with N87 cells, the inhibition in vivo at 100 mg/kg is 30.3%.

As to `NC1CCN(Cc2ccc(NC(=O)c3sc4ncnc5c4c3NC(=O)N5c3ccc(Oc4ccccc4)cc3)cc2)CC1` [Cpd 259, 4-oxo-5-(4-phenoxy-phenyl)-4,5-dihydro-3H-1-thia-3,5,6,8-tetraaza-acenaphthylene-2-carboxylic acid [4-(4-amino-piperidin-1-ylmethyl)-phenyl]-amide], the IC50 on HER-2 came out at 11 nM; against EGFR, 21 nM. Moreover, the inhibition in vivo at 100 mg/kg with N87 cells stood at 46.8%.

Consider `O=C(NCCCO)c1sc2ncnc3c2c1NC(=O)N3c1ccc(Oc2cccc(F)c2)cc1` [Cpd 133, 5-[4-(3-fluoro-phenoxy)-phenyl]-4-oxo-4,5-dihydro-3H-1-thia-3,5,6,8-tetraaza-acenaphthylene-2-carboxylic acid (3-hydroxy-propyl)-amide], for which the inhibition at 2 µM against c-Src kinase (human) was 16%; at Lyn kinase (human), 20%. The inhibition at 1 µM at HER-2 is 0%. The IC50 at HER-2 is > 10000 nM; against EGFR, 34 nM.

As for `O=C(NCCCO)c1sc2ncnc3c2c1NC(=O)N3c1ccc(Oc2ccccc2)cc1` [Cpd 106, 4-oxo-5-(4-phenoxy-phenyl)-4,5-dihydro-3H-1-thia-3,5,6,8-tetraaza-acenaphthylene-2-carboxylic acid (3-hydroxy-propyl)-amide], the inhibition at 2 µM is 30% on c-Src kinase (human) and 27% at Lyn kinase (human). Moreover, the IC50 is 771 nM on HER-2 and 42 nM against EGFR.

For `O=C(Nc1ccc(CN2CCCCC2)cc1)c1sc2ncnc3c2c1NC(=O)N3c1ccccc1Cl` [Cpd 150, 5-(2-chloro-phenyl)-4-oxo-4,5-dihydro-3H-1-thia-3,5,6,8-tetraaza-acenaphthylene-2-carboxylic acid (4-piperidin-1-ylmethyl-phenyl)-amide], the inhibition at 2 µM against c-Src kinase (human) worked out at 52%; against Lyn kinase (human), 77%. In addition, on HER-2, the inhibition at 1 µM stood at 18%. This molecule yielded an IC50 against EGFR of 170 nM.

In the case of `O=C(O)c1sc2ncnc3c2c1NC(=O)N3c1ccc(Br)cc1F` [Cpd 40, 5-(4-bromo-2-fluoro-phenyl)-4-oxo-4,5-dihydro-3H-1-thia-3,5,6,8-tetraaza-acenaphthylene-2-carboxylic acid], the inhibition at 2 µM at c-Src kinase (human) is 3%; at Lyn kinase (human) it was -5%. Besides, on HER-2, the inhibition at 1 µM was -19%. The molecule further came in with an IC50 on EGFR of 7430 nM.

Consider `O=C(Nc1ccc(CN2CCOCC2)cc1)c1sc2ncnc3c2c1NC(=O)N3c1ccc(F)cc1Cl` [Cpd 16, 5-(2-chloro-4-fluoro-phenyl)-4-oxo-4,5-dihydro-3H-1-thia-3,5,6,8-tetraaza-acenaphthylene-2-carboxylic acid (4-morpholin-4-ylmethyl-phenyl)-amide], for which the inhibition at 2 µM worked out at 52% against c-Src kinase (human) and 68% against Lyn kinase (human). Also, the inhibition at 1 µM against HER-2 was determined as 54%. In addition, the IC50 on HER-2 was found to be 5440 nM; against EGFR, 223 nM.

As to `O=C(Nc1ccc(CN2CCCCC2)cc1)c1sc2ncnc3c2c1NC(=O)N3c1ccc(Cc2ccccc2)cc1` [Cpd 164, 5-(4-benzyl-phenyl)-4-oxo-4,5-dihydro-3H-1-thia-3,5,6,8-tetraaza-acenaphthylene-2-carboxylic acid (4-piperidin-1-ylmethyl-phenyl)-amide], the results for the inhibition at 2 µM on c-Src kinase (human) and on Lyn kinase (human) were 25% and 35%, respectively. Further, the IC50 at HER-2 was found to be 103 nM; on EGFR, 11 nM.

On to `Cc1ccc(Oc2ccc(N3C(=O)Nc4c(C(=O)Nc5ccc(CN6CCOCC6)cc5)sc5ncnc3c45)cc2C)cn1` [Cpd 119, 5-[3-methyl-4-(6-methyl-pyridin-3-yloxy)-phenyl]-4-oxo-4,5-dihydro-3H-1-thia-3,5,6,8-tetraaza-acenaphthylene-2-carboxylic acid (4-morpholin-4-ylmethyl-phenyl)-amide], for which the inhibition at 2 µM against c-Src kinase (human) was -17%; against Lyn kinase (human) it was -47%. For the same molecule, the figures for the IC50 at HER-2 and against EGFR were 1090 nM and 1800 nM, respectively.

For `COc1cc(NC(=O)c2sc3ncnc4c3c2NC(=O)N4c2cc(OC)c(OC)c(OC)c2)ccc1OCC1CCCCO1` (stereo not shown) [Cpd 31, 5-(3,4,5-trimethoxy-phenyl)-4-oxo-4,5-dihydro-3H-1-thia-3,5,6,8-tetraaza-acenaphthylene-2-carboxylic acid [3-methoxy-4-(tetrahydro-pyran-2-ylmethoxy)-phenyl]-amide], the values for the inhibition at 2 µM against c-Src kinase (human) and at Lyn kinase (human) were 8% and -7%, respectively. For the same molecule, the inhibition at 1 µM against HER-2 came out at 1%. The molecule further gave an IC50 against EGFR of 42700 nM.
